In PMC8236845:
Where a name gives a salt, the structure may show the parent alone. Read-outs that look alike come from different tables or passages of the source. Numbered stars: 1 amine (or outer) side, 2 acyl side, 3 side chain; on linkers, the order of the positions; unused ones are H or OH. Bridge positions count the residues as written; N and C are the ends. Square brackets hold non-standard residues; d marks the D form. Peptide text beside a SMILES is read from it. * marks the point of attachment. Orn(4R-OH,5R-OH) = O=C([C@H](C[C@@H](O)[C@@H](O)N[*:3])N[*:1])[*:2]; Tetradecanoyl(10R,12S-Me2) = CC[C@H](C)C[C@H](C)CCCCCCCCC(=O)*; hTyr(3S-OH,4S-OH) = N[C@H](C(=O)O)[C@H](O)[C@@H](O)c1ccc(O)cc1; Gln(3R-OH) = NC(=O)C[C@@H](O)[C@H](N)C(=O)O; Pro(3S-OH) = O=C(O)[C@H]1NCC[C@@H]1O; Hyp = O=C(O)[C@@H]1C[C@@H](O)CN1

Target: binding of recombinant, trimeric SARS-CoV-2 spike protein to recombinant human ACE2 (Severe acute respiratory syndrome coronavirus 2, UniProt P0DTC2, K986P/R682G/R683S/R685S/V987P)
Assay: biochemical
Design: species or system SARS-CoV-2 / human

Compound	% Inhibition	further results
CC(=O)O[C@@]12CO[C@@H]1C[C@H](O)[C@@]1(C)C(=O)[C@H](O)C3=C(C)[C@@H](OC(=O)[C@H](O)[C@@H](NC(=O)OC(C)(C)C)c4ccccc4)C[C@@](O)([C@@H](OC(=O)c4ccccc4)[C@H]21)C3(C)C [Docetaxel Trihydrate]	95%	–
CC(=O)O[C@@]12CO[C@@H]1C[C@H](O)[C@@]1(C)C(=O)[C@H](O)C3=C(C)[C@@H](OC(=O)[C@H](O)[C@@H](NC(=O)OC(C)(C)C)c4ccccc4)C[C@@](O)([C@@H](OC(=O)c4ccccc4)[C@H]21)C3(C)C [Docetaxel]	–	% Inhibition, Screen: 98%
CO[C@H]1C[C@H](O[C@H]2[C@H](C)O[C@@H](O[C@@H]3/C(C)=C/C[C@@H]4C[C@@H](C[C@]5(C=C[C@H](C)[C@@H](C6CCCCC6)O5)O4)OC(=O)[C@@H]4C=C(C)[C@@H](O)[C@H]5OC/C(=C\C=C\[C@@H]3C)[C@]54O)C[C@@H]2OC)O[C@@H](C)[C@@H]1O [Doramectin]	96%	EC50 (read-out: EC 50): 12.8 µM; IC50 (read-out: IC50 Mean): 12.8 µM
CN1CCc2nc(C(=O)N[C@@H]3C[C@@H](C(=O)N(C)C)CC[C@@H]3NC(=O)C(=O)Nc3ccc(Cl)cn3)sc2C1 [Edoxaban]	95%	–
COC(=O)N[C@H](C(=O)N1CCC[C@H]1c1nc(-c2ccc3c(c2)O[C@@H](c2ccccc2)n2c-3cc3cc(-c4c[nH]c([C@@H]5CCCN5C(=O)[C@@H](NC(=O)OC)C(C)C)n4)ccc32)c[nH]1)C(C)C [Elbasvir]	100%	–
CN1CCN(c2ccc(C(=O)Nc3n[nH]c4ccc(Cc5cc(F)cc(F)c5)cc34)c(NC3CCOCC3)c2)CC1 [Entrectinib]	90%	IC50: 58.4 µM
C[C@]12CC[C@@H]3c4ccc(OC(=O)c5ccccc5)cc4CC[C@H]3[C@@H]1CC[C@@H]2O [Estradiol benzoate]	93%	–
CO[C@H]1C[C@@H]2CC[C@@H](C)[C@@](O)(O2)C(=O)C(=O)N2CCCC[C@H]2C(=O)O[C@H]([C@H](C)C[C@@H]2CC[C@@H](OCCO)[C@H](OC)C2)CC(=O)[C@H](C)/C=C(\C)[C@@H](O)[C@@H](OC)C(=O)[C@H](C)C[C@H](C)/C=C/C=C/C=C/1C [Everolimus (RAD001), Everolimus]	94%	–
N#Cc1nn(-c2c(Cl)cc(C(F)(F)F)cc2Cl)c(N)c1[S+]([O-])C(F)(F)F (stereo not drawn) [Fipronil]	91%	–
CC[C@@]1(O)C(=O)OCc2c1cc1n(c2=O)Cc2cc3cc(O)ccc3nc2-1 [Hydroxycamptothecin]	99%	–
Cc1ccc(NC(=O)c2ccc(CN3CCN(C)CC3)cc2)cc1Nc1nccc(-c2cccnc2)n1 [Imatinib]	–	inhibition of spike-ACE2 binding in the screen: failed to inhibit
CCc1c2c(nc3ccc(OC(=O)N4CCC(N5CCCCC5)CC4)cc13)-c1cc3c(c(=O)n1C2)COC(=O)[C@]3(O)CC [Irinotecan]	–	inhibition of spike-ACE2 binding in the screen: did not inhibit
COc1cc(-c2coc3cc4c(c(OC)c3c2=O)OCO4)cc(OC)c1OC [Irisflorentin]	97%	–
COc1cc2nccc(Oc3ccc(NC(=O)NC4CC4)c(Cl)c3)c2cc1C(N)=O [Lenvatinib Mesylate]	94%	–
O=C(NC1CCN(CCCCC2(C(=O)NCC(F)(F)F)c3ccccc3-c3ccccc32)CC1)c1ccccc1-c1ccc(C(F)(F)F)cc1 [Lomitapide Mesylate]	93%	–
OC(c1cc(C(F)(F)F)nc2c(C(F)(F)F)cccc12)C1CCCCN1 (stereo not drawn) [Mefloquine]	–	% inhibition in first-round screen: 77%
CN(C)c1ccc2nc3ccc(=[N+](C)C)cc-3sc2c1 [Methylene Blue]	–	% inhibition in first-round screen: 44%
C[C@@H]1C[C@H]2[C@@H]3CCC4=CC(=O)C=C[C@]4(C)[C@@]3(Cl)[C@@H](O)C[C@]2(C)[C@@]1(OC(=O)c1ccco1)C(=O)CCl [Mometasone furoate]	98%	–
Cc1c(O)cccc1C(=O)N[C@@H](CSc1ccccc1)[C@H](O)CN1C[C@H]2CCCC[C@H]2C[C@H]1C(=O)NC(C)(C)C [Nelfinavir Mesylate]	94%	–
Cc1cn(-c2cc(NC(=O)c3ccc(C)c(Nc4nccc(-c5cccnc5)n4)c3)cc(C(F)(F)F)c2)cn1 [Nilotinib AMN-107, Nilotinib]	99%	–
Cc1cn(-c2cc(NC(=O)c3ccc(C)c(Nc4nccc(-c5cccnc5)n4)c3)cc(C(F)(F)F)c2)cn1.Cl [Nilotinib HCl, Nilotinib Hydrochloride]	99%	–
CCCCCCCCN=c1ccn(CCCCCCCCCCn2ccc(=NCCCCCCCC)cc2)cc1 [Octenidine Dihydrochloride]	100%	–
C=CC(=O)Nc1cccc(Oc2nc(Nc3ccc(N4CCN(C)CC4)cc3)nc3ccsc23)c1 [Olmutinib]	98%	–

Compound	% Inhibition	further results
COC(=O)N[C@H](C(=O)N1CCC[C@H]1C(=O)Nc1ccc([C@@H]2CC[C@@H](c3ccc(NC(=O)[C@@H]4CCCN4C(=O)[C@@H](NC(=O)OC)C(C)C)cc3)N2c2ccc(C(C)(C)C)cc2)cc1)C(C)C [Ombitasvir (ABT-267), Ombitasvir]	92%	–
COc1cc([C@@H]2c3cc4c(cc3[C@H](O)[C@H]3COC(=O)[C@@H]23)OCO4)cc(OC)c1OC [Picropodophyllin]	98%	–
CC[C@H](C)C[C@H](C)CCCCCCCCC(=O)N[C@H]1C[C@@H](O)[C@@H](O)NC(=O)[C@@H]2[C@@H](O)CCN2C(=O)[C@H]([C@H](O)CC(N)=O)NC(=O)[C@H]([C@H](O)[C@@H](O)c2ccc(O)cc2)NC(=O)[C@@H]2C[C@@H](O)CN2C(=O)[C@H]([C@@H](C)O)NC1=O [Pneumocandin B0] ({Tetradecanoyl(10R,12S-Me2)}-[Orn(4R-OH,5R-OH)]T[Hyp][hTyr(3S-OH,4S-OH)][Gln(3R-OH)][Pro(3S-OH)]; lactam 1-C)	98%	EC50 (read-out: EC50 (corrected)): 72.8 µM
CC[C@@H]([C@H](C)O)n1ncn(-c2ccc(N3CCN(c4ccc(OC[C@@H]5CO[C@@](Cn6cncn6)(c6ccc(F)cc6F)C5)cc4)CC3)cc2)c1=O [Posaconazole]	97%	–
CC[C@@]1(O)C(=O)OCc2c1cc1n(c2=O)Cc2cc3cc(O)ccc3nc2-1 [S-(10)-hydroxycamptothecin, (S)-10-Hydroxycamptothecin]	100%	–
CO[C@H]1C[C@H](O[C@@H]2/C(C)=C/C[C@@H]3C[C@@H](C[C@]4(CC[C@H](C)[C@@H](C5CCCCC5)O4)O3)OC(=O)[C@@H]3C=C(C)/C(=N/O)[C@H]4OC/C(=C\C=C\[C@@H]2C)[C@]43O)O[C@@H](C)[C@@H]1O [Selamectin]	97%	–
CNC(=O)c1cc(Oc2ccc(NC(=O)Nc3ccc(Cl)c(C(F)(F)F)c3)cc2)ccn1 [Sorafenib Tosylate]	–	% Inhibition, Screen: 21%
CN1CC(=O)N2[C@H](c3ccc4c(c3)OCO4)c3[nH]c4ccccc4c3C[C@@H]2C1=O [Tadalafil]	96%	–
CO[C@H]1C[C@@H]2CC[C@@H](C)[C@@](O)(O2)C(=O)C(=O)N2CCCC[C@H]2C(=O)O[C@H]([C@H](C)C[C@@H]2CC[C@@H](OC(=O)C(C)(CO)CO)[C@H](OC)C2)CC(=O)[C@H](C)/C=C(\C)[C@@H](O)[C@@H](OC)C(=O)[C@H](C)C[C@H](C)/C=C/C=C/C=C/1C [Temsirolimus (CCI-779, NSC 683864), Temsirolimus]	96%	–
COc1cc([C@@H]2c3cc4c(cc3[C@@H](O[C@@H]3O[C@@H]5CO[C@@H](c6cccs6)O[C@H]5[C@H](O)[C@H]3O)[C@H]3COC(=O)[C@H]23)OCO4)cc(OC)c1O [Teniposide]	97%	–
C=C(NC(=O)C(=C)NC(=O)c1csc(C2=N[C@@H]3c4csc(n4)[C@H]4NC(=O)c5csc(n5)[C@H]([C@](C)(O)[C@@H](C)O)NC(=O)[C@H]5CSC(=N5)/C(=C/C)NC(=O)[C@H]([C@@H](C)O)NC(=O)c5csc(n5)[C@]3(CC2)NC(=O)[C@H](C)NC(=O)C(=C)NC(=O)[C@H](C)NC(=O)[C@H]([C@@H](C)CC)N[C@@H]2C=Cc3c([C@H](C)O)cc(nc3[C@H]2O)C(=O)O[C@@H]4C)n1)C(N)=O [Thiostrepton]	99%	–
CCOC(=O)c1c(N)sc2c1CCN(Cc1ccccc1)C2.Cl [Tinoridine Hydrochloride]	90%	EC50 (read-out: EC50 (corrected)): 257 µM
Cn1cncc1[C@@](N)(c1ccc(Cl)cc1)c1ccc2c(c1)c(-c1cccc(Cl)c1)cc(=O)n2C [Tipifarnib]	98%	–
CC[C@@]1(O)C(=O)OCc2c1cc1n(c2=O)Cc2cc3c(CN(C)C)c(O)ccc3nc2-1 [Topotecan]	–	inhibition of spike-ACE2 binding in the screen: did not inhibit
NC1CCN(c2nc3c(cc2F)c(=O)c(C(=O)O)cn3-c2ccc(F)cc2F)C1 (stereo not drawn) [Tosufloxacin (P-Toluenesulfonic Acid), Tosufloxacin]	97%	–
Nc1nc(N)c2nc(-c3ccccc3)c(N)nc2n1 [Triamterene]	91%	–
COC[C@H]1C[C@@H](c2nc(-c3ccc4c(c3)COc3cc5c(ccc6nc([C@@H]7CC[C@H](C)N7C(=O)[C@@H](NC(=O)OC)C(C)C)[nH]c65)cc3-4)c[nH]2)N(C(=O)[C@H](NC(=O)OC)c2ccccc2)C1 [Velpatasvir]	93%	–
N#Cc1ccc2[nH]cc(CCCCN3CCN(c4ccc5oc(C(N)=O)cc5c4)CC3)c2c1 [Vilazodone HCl]	99%	–
CO[C@H]1C[C@@H]2CC[C@@H](C)[C@@](O)(O2)C(=O)C(=O)N2CCCC[C@H]2C(=O)O[C@H]([C@H](C)C[C@@H]2CC[C@H](n3cnnn3)[C@H](OC)C2)CC(=O)[C@H](C)/C=C(\C)[C@@H](O)[C@@H](OC)C(=O)[C@H](C)C[C@H](C)/C=C/C=C/C=C/1C [Zotarolimus(ABT-578), Zotarolimus]	96%	–
Avermectin B1	98%	–
Cefotiam Hexetil Hydrochloride	99%	EC50 (read-out: EC50 (corrected)): 37.3 µM
Ivermectin	–	% inhibition in first-round screen: 89%
